From ChEMBL document CHEMBL1208702, “Use of 2-[(18)F]fluoroethylazide for the Staudinger ligation - Preparation and characterisation of GABA(A) receptor binding 4-quinolones” (Bioorg Med Chem Lett, 2010)

Assay: Displacement of [3H]Ro151788 from GABA-A receptor in Wistar rat cerebellar membrane after 1 hr by liquid scintillation counting
Type: cell membranes, Cerebellum

- Ki: 1.3 nM
Compound: O=C(NCCCF)c1c[nH]c2ccc(Br)cc2c1=O
